Results taken from ChEMBL document CHEMBL1201862, “PubChem BioAssay data set” (2004).
Structures can show the parent of a compound that is named as a salt. Calls of active or inactive are those of the source.

How the values were obtained:
[1] = molecular target: T1, Mucolipin-3 (Homo sapiens, UniProt Q8TDD5); test: Dose response cell-based high-throughput screening assay for agonists of the transient receptor potential channel ML3 (TRPML3). [Related pubchem assays: 1526, 1424, 1448 ]; assay type: functional
T1 sequence (Q8TDD5 whole entry): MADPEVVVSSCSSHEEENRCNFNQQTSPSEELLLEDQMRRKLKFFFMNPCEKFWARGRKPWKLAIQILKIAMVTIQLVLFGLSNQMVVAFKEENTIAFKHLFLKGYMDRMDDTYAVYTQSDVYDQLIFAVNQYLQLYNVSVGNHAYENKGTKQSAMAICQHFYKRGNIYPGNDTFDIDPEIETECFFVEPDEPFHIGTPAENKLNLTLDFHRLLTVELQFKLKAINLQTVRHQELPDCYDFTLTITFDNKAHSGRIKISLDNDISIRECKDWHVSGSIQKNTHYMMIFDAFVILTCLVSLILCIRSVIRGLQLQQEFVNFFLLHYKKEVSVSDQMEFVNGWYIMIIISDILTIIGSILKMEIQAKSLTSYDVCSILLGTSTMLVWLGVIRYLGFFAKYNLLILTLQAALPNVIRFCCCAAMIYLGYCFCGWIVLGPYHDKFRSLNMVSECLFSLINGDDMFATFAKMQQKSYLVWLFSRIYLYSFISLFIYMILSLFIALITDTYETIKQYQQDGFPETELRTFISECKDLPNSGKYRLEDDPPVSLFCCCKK

[2] = molecular target: Ion channel NompC (Danio rerio, UniProt Q7T1G6); test: Fluorescence counterscreen assay for TRPML3 agonists: dose response cell-based high-throughput screening assay to identify agonists of the transient receptor potential channel N1 (TRPN1). [Related pubchem assays: 1526, 1424, 1448 ]; assay type: functional
[3] = A cytotoxicity screen of small molecule inhibitors of the PhoP region in Salmonella typhi identified in the primary screen. [Related pubchem assays: 1850, 1864, 1985 ]; assay type: functional
[4] = molecular target: T2, Heat shock factor protein 1 (Mus musculus, UniProt P38532); test: decrease of HSF1-responsive luciferase luminescence – cell-based, NIH3T3, dose retest, confirmation (AID 2382); assay type: functional;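 further: NIH3T3 fibroblasts with HSF1-driven luciferase reporter stressed by proteasome inhibitor MG132; luminescence from HSF1-driven luciferase expression after 8 hours of MG132 stress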
T2 sequence (P38532 whole entry): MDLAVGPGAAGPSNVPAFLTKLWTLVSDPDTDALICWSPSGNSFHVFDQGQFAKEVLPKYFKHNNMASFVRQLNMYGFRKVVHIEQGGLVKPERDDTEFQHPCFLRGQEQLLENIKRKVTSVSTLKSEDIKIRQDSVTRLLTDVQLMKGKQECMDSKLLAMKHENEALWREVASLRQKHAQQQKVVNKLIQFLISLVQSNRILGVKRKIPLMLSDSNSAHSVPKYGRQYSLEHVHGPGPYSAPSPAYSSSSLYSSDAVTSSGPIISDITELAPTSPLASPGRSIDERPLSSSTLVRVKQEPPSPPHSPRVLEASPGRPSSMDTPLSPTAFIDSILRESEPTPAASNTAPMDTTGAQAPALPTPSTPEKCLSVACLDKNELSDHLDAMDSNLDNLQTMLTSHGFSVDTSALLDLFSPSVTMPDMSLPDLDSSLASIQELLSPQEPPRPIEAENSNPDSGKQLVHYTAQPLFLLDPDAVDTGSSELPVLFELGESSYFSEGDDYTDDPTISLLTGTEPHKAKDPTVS

[5] = molecular target: DNA dC->dU-editing enzyme APOBEC-3G (Homo sapiens, UniProt Q9HC16); test: Dose Response confirmation of small molecule APOBEC3G DNA Deaminase Inhibitors via a fluorescence-based single-stranded DNA deaminase assay. [Related pubchem assays (depositor defined):AID493012, AID493028]; assay type: functional
[6] = HEK-293T cell viability reduction – luminescence, B-cell screen hits, cytotoxicity control for BCR NF-kB inhibitor project, dose response (AID 489021); assay type: functional, cell-based;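 further: HEK-293T cells carrying an NF-kB luciferase reporter; cells exposed to compound for about 14 hours before viability readout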
[7] = molecular target: T3, Streptokinase A (Streptococcus pyogenes serotype M1, UniProt P10520); test: viability-normalized secreted streptokinase activity reduction – plasminogen activation absorbance, OD405, dose response (AID 1914); assay type: functional, Streptococcus pyogenes M1 GAS;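 further: secreted streptokinase activity via plasminogen activation per viability signal from cell pellet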
T3 sequence (P10520 whole entry): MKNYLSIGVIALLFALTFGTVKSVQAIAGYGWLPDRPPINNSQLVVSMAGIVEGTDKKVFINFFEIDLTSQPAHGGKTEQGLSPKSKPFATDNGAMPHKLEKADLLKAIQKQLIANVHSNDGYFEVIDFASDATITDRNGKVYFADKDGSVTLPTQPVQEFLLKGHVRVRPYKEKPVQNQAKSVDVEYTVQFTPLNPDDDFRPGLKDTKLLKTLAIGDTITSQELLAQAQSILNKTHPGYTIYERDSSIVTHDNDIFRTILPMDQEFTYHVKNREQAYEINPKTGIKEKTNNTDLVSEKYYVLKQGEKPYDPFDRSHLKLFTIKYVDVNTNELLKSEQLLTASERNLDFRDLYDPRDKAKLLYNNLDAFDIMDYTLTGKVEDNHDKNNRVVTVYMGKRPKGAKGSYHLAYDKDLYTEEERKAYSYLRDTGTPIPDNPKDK

[8] = tested on: Streptococcus; test: GAS UMAA2166 growth inhibition – luminescence, BacTiterGlo, counter-screen for streptokinase expression inhibitor project, dose response (AID 1915); assay type: functional, organism-based;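 further: potency for reduction of bacterial viability or growth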
[9] = tested on: Streptococcus sp. 'group A'; test: Streptococcus pyogenes SK(-)GAS viability under kanamycin – luminescence, BacTiterGlo, confirmation, counter-screen for streptokinase expression inhibitor project, dose response (AID 1900); assay type: functional, organism-based
[10] = Luminescence Cell-Based Dose Retest to Confirm Inhibitors of Cancer Stem Cells. [Related pubchem assays (depositor defined):AID2717, AID2721]; assay type: functional; conditions: Homo sapiens
[11] = molecular target: Eukaryotic translation initiation factor 4E (Mus musculus, UniProt P63073); test: blockers of eIF4G binding by eIF4E – biochemical, TR-FRET, dose response (AID 855); assay type: functional;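 further: potency for disrupting eIF4E binding to eIF4GI seen as loss of FRET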
[12] = molecular target: T4, Carboxy-terminal domain RNA polymerase II polypeptide A small phosphatase 1 (Homo sapiens, UniProt Q9GZU7); test: CTDSP1 inhibitors, concentration-response, biochemical, absorbance readout, ultra-high-throughput screen actives (AID 540297); assay type: functional
T4 sequence (Q9GZU7 whole entry): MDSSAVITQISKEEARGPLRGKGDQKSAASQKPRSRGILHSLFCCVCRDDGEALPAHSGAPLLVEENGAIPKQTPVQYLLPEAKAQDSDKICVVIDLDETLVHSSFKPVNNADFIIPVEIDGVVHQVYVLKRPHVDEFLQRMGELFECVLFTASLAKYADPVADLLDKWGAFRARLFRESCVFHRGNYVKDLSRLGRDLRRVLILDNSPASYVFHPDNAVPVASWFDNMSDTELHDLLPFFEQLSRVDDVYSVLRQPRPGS

[13] = molecular target: T5, Caspase-6 (Homo sapiens, UniProt P55212); test: inhibition of CASP6 peptide cleavage – biochemical, VEID-R110 fluorescence, cherry-pick, dose response (AID 720632)
T5 sequence (P55212 whole entry): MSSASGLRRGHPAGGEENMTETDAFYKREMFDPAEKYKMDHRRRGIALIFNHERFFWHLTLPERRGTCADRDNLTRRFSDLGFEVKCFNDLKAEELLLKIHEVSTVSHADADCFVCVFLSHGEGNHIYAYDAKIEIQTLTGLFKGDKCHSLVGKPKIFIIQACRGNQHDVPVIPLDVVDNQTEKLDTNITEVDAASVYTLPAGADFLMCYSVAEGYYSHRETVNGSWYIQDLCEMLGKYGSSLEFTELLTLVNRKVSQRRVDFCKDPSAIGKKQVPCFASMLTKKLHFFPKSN

[14] = molecular target: Induced myeloid leukemia cell differentiation protein Mcl-1 (Homo sapiens, UniProt Q07820); assay type: functional
[15] = molecular target: Large T antigen (Simian virus 40, UniProt P03070); assay type: functional, Betapolyomavirus macacae;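 further: Confirmatory-stage PubChem screen for compounds that inhibit SV40 T antigen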
[16] = molecular target: FAD-linked sulfhydryl oxidase ALR (Homo sapiens, UniProt P55789); test: ALR-catalysed DTT oxidation blockers – biochemical, H2O2 detection, luminescence, cherry-pick, dose response (AID 493248)
[17] = molecular target: Cytochrome P450 2D6 (Homo sapiens, UniProt P10635);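 further: CYP2D6 member of a cytochrome P450 panel assay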
[18] = molecular target: T6, Short transient receptor potential channel 4 (Mus musculus, UniProt Q9QUQ5); test: calcium entry via TRPC4 opening agents – cell-based, HEK293 TRPC4/mu-opioid, Fluo-4 calcium, dose response (AID 434937); assay type: functional
T6 sequence (Q9QUQ5 whole entry): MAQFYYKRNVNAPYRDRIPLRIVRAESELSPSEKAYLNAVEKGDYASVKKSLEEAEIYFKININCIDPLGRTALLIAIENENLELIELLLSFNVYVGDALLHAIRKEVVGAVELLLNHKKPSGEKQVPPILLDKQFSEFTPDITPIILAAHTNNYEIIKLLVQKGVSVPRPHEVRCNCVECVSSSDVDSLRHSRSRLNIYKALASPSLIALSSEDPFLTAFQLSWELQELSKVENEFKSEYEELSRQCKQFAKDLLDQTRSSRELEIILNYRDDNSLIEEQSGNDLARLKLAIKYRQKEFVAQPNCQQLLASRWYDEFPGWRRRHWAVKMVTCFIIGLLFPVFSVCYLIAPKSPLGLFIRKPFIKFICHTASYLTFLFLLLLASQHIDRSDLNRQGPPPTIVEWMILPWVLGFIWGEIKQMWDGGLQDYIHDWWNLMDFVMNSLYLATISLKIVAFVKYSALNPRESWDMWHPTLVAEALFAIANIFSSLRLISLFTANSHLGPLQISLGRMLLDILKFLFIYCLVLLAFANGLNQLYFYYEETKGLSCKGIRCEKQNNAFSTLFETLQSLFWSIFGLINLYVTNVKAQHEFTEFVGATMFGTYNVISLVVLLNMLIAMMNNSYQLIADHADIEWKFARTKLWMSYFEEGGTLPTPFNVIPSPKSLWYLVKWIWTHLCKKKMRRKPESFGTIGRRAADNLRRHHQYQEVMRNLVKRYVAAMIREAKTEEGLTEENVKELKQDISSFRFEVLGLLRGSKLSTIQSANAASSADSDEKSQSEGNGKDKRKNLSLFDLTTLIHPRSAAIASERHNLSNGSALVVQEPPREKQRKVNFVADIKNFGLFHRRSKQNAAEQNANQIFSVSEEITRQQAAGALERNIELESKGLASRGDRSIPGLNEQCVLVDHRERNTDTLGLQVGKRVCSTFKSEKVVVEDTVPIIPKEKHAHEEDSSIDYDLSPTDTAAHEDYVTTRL

Sequence of Ion channel NompC (Q7T1G6 whole entry): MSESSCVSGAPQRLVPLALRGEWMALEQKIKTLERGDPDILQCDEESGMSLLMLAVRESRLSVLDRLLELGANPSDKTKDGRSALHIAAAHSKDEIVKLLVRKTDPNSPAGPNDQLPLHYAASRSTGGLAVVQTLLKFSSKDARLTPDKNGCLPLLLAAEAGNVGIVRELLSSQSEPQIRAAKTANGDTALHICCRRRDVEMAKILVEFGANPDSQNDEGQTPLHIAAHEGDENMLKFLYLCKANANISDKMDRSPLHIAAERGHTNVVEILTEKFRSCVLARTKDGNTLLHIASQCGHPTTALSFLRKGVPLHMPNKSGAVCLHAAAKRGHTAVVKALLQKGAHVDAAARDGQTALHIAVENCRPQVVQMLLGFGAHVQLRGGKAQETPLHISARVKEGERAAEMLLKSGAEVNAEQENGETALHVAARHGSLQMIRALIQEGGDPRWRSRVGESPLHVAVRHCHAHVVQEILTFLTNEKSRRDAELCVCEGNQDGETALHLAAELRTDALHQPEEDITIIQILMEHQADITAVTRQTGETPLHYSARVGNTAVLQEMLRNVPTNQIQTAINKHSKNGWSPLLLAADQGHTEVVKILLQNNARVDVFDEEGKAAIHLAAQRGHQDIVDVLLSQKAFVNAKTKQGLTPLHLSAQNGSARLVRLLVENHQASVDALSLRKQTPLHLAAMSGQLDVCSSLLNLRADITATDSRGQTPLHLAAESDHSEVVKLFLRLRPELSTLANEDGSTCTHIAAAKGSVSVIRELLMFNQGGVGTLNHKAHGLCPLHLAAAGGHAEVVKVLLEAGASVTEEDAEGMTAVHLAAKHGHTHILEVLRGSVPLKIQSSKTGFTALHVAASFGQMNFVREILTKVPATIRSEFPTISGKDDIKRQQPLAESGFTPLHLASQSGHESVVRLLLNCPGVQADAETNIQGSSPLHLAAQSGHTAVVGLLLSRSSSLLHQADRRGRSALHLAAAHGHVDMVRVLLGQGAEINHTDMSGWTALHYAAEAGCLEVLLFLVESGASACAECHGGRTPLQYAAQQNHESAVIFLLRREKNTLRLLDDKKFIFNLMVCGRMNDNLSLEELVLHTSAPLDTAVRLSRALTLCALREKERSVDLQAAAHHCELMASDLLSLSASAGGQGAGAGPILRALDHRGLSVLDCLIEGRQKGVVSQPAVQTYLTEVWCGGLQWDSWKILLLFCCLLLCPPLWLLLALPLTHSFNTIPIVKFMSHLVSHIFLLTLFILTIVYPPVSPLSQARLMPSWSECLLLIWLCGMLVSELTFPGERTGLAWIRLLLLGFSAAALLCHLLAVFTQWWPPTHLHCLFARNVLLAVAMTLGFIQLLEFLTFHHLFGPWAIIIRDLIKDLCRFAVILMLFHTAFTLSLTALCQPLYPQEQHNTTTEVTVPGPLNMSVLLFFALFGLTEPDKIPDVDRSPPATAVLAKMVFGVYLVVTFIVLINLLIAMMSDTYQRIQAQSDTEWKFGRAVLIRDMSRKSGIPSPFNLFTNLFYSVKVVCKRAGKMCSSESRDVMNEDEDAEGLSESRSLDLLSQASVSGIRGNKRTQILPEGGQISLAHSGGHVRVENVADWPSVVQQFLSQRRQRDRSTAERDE
Sequence of Eukaryotic translation initiation factor 4E (P63073 whole entry, the tested form may be a part): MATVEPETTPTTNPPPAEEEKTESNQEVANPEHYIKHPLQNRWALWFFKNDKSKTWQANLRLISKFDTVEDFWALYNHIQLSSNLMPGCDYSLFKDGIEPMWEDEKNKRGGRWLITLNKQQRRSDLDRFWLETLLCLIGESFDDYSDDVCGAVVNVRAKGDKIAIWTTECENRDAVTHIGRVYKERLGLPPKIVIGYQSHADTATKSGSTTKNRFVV
Sequence of DNA dC->dU-editing enzyme APOBEC-3G (Q9HC16 whole entry): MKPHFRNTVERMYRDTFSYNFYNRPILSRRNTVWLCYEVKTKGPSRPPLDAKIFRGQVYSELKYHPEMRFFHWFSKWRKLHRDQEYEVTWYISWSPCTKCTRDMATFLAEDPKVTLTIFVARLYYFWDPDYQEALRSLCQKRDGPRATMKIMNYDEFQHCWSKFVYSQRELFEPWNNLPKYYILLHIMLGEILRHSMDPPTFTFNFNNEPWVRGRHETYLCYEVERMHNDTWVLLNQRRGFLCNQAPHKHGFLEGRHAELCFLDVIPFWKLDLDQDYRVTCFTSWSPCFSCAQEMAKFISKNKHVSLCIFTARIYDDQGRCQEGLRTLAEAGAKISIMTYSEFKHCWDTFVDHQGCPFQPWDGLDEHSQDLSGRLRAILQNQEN
Sequence of Cytochrome P450 2D6 (P10635 whole entry): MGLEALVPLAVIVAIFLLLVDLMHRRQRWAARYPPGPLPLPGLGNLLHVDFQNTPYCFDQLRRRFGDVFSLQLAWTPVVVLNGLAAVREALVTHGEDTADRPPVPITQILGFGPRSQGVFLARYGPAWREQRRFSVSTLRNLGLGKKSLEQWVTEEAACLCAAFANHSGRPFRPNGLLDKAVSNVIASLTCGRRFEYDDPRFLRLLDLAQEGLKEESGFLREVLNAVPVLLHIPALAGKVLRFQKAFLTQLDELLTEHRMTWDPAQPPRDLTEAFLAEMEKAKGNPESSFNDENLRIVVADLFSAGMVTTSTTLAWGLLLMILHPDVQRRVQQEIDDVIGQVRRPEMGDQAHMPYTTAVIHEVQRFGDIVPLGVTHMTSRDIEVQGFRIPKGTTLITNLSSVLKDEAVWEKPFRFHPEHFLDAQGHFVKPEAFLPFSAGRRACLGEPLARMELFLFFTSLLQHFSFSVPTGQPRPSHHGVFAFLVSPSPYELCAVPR
Sequence of FAD-linked sulfhydryl oxidase ALR (P55789 whole entry): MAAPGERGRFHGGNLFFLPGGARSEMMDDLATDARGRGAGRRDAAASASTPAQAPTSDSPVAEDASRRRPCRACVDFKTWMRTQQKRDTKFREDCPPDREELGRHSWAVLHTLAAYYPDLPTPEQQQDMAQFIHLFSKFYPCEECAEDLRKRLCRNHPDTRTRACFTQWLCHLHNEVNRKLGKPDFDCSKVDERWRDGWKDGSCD
Sequence of Induced myeloid leukemia cell differentiation protein Mcl-1 (Q07820 whole entry): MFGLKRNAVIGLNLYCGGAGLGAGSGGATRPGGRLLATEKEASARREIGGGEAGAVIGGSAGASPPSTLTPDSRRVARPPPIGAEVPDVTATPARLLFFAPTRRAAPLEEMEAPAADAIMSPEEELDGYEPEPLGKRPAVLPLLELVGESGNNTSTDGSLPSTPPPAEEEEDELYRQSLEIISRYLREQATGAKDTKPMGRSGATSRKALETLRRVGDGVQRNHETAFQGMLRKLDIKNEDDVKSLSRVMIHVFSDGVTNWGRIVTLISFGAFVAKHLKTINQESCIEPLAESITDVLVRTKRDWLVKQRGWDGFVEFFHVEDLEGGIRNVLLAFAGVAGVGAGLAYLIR
Sequence of Large T antigen (P03070 whole entry): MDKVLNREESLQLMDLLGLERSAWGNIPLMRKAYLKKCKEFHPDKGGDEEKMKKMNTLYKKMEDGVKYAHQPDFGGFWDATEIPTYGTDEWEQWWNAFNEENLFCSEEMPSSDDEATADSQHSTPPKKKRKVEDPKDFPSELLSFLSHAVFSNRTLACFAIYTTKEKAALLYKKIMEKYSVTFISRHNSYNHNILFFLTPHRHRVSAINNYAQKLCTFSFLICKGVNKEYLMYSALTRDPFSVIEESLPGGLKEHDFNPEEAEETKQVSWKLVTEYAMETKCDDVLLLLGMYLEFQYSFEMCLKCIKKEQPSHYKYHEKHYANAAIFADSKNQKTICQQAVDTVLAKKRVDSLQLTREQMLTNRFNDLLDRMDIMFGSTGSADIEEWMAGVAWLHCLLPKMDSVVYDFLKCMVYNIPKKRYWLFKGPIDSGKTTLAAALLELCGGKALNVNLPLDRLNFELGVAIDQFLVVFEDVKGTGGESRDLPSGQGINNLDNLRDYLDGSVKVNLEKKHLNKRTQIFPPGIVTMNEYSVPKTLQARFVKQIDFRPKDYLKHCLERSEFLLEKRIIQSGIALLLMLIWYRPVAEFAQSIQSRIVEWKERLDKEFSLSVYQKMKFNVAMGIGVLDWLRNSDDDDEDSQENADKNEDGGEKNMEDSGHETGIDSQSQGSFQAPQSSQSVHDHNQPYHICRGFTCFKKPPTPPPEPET

O=C1c2ccccc2CCCC12N=NCC2c1cccc2ccccc12 (configuration not stated)
EC50 [1]: 3.31 µM (active) | EC50 [2]: > 29.9 µM (not active)

CCOC(=O)C(CC)Sc1ccc2nnc(-c3cccnc3)n2n1 (configuration not stated)
EC50 [3]: > 50 µM (active) | EC50 [4]: > 195 µM (not active)

Oc1ccc(C(=S)N2CCN(c3cccc(Cl)c3)CC2)cc1
IC50 [5]: 81 µM (active)

Cc1ccc(CCNC(=O)c2cc(S(=O)(=O)N3CCCCC3)c[nH]2)cc1
EC50 [3]: > 50 µM (active)

C=C(C)Cn1c(C)cc(C)c(S(=O)(=O)c2ccccc2C)c1=O
EC50 [1]: 5.9 µM (active) | EC50 [2]: > 29.9 µM (not active)

Cn1nc(-c2ccc(N3CCOCC3)c(NS(=O)(=O)c3ccccc3)c2)c2ccccc2c1=O
IC50 [6]: > 80 µM (inactive)

CCOC(=O)c1sc(NC(=O)c2cc(-c3ccccc3C)nc3ccccc23)c(C#N)c1C
EC50 [7]: > 150 µM (not active) | EC50 [8]: 36.2 µM (active) | EC50 [9]: 1.04 µM (active) | IC50 [6]: 62.1 µM (inactive) | AC50 [10]: 0.693 µM (active)

CCOC(=O)CSc1nnc(CSc2nc(C)cc(C)n2)n1Cc1ccco1
IC50 [11]: > 64 µM (inactive)

Cc1ccc(S(=O)(=O)NCC(=O)N(CC(=O)NCC2CCCO2)C2CCCC2)cc1 (configuration not stated)
IC50 [11]: > 64 µM (inactive)

COc1ccc(-n2ncc3c(N4CCC(C(N)=O)CC4)ncnc32)cc1
IC50 [6]: > 80 µM (inactive)

O=C(CSc1ccsc1[N+](=O)[O-])Nc1cccc(F)c1
IC50 [12]: 3.65 µM (active) | AC50 [13]: 16.3 µM (active) | IC50 [14]: 2.92 µM (active) | IC50 [11]: 50 µM (inactive)

CC(C)CCn1c(=O)c2ccccc2n2c(=S)[nH]nc12
IC50 [5]: 1.19 µM (active) | IC50 [15]: 14.7 µM (active)

O=C(Nc1cccc([N+](=O)[O-])c1)Nc1cccs1
EC50 [3]: > 50 µM (active)

CN(C1CCCCC1)S(=O)(=O)c1cccc(C#N)c1
EC50 [1]: 3.58 µM (active) | EC50 [2]: > 29.9 µM (not active)

Sc1nnc(Nc2ccccc2)s1
IC50 [5]: 0.892 µM (active) | AC50 [16]: 1.91 µM (active)

COc1ccc(-c2c/c(=N\CC(=O)O)c3ccccc3o2)cc1.[O-][Cl+3]([O-])([O-])O
EC50 [3]: > 50 µM (active)

COc1ccc(/C=N/n2c(S)nnc2-c2cccs2)cc1
AC50 [17]: 3.55 µM (inconclusive) | EC50 [7]: > 150 µM (not active) | EC50 [8]: 15.6 µM (active) | EC50 [9]: 7.17 µM (active) | IC50 [11]: > 64 µM (inactive)

COC(=O)C1=CCCN(C)C1 [ARECOLINE HYDROBROMIDE]
EC50 [1]: 2.26 µM (active) | EC50 [18]: 6.68 µM (active) | EC50 [2]: > 29.9 µM (not active)
